Columns and labels:
Format in all cases: cell-based, human
[1] = test system: NCI-H-1792 lung adenocarcinoma cell line; test: DIMSCAN cytotoxicity, fenretinide + L-threo-sphinganines 3:1 (Example B12); details: 96 h
Protocol: (§1) Cytotoxicity Assay—Once again, cytotoxicity is determined using the DIMSCAN assay system (R. Proffitt et al., Cytometry 24, 204-213 (1996); T. Frgala et al., Mol Cancer Ther. 6:886-97, 2007). The system employs digital imaging microscopy to quantify viable cells, which selectively accumulate fluorescein diacetate to become brightly fluorescent. The system is capable of measuring cytotoxicity over a 4-5 log dynamic range by quenching the residual fluorescence of dead and dying cells with eosin Y and quantifying the total fluorescence of viable cells using digital thresholding. Measured fluorescence is directly proportionate to the number of viable cells. A comparison of the total fluorescence of a drug-treated cell population to the fluorescence of a similar number of untreated cells yields a survival fraction. In brief, 2000 to 10,000 cells/well (depending on size and growth rates) are replicate plated into 60 wells of a 96-well tissue culture plate in 0.1 mL of whole medium and allowed to attach overnight. Drug(s) are then added in 0.05 mL of whole medium to the final concentrations indicated. Drugs (fenretinide, and various chain length L-threo-sphinganines) were tested both as single agents and in a 3:1 ratio of fenretinide:sphinganine. C18-L-threo-sphinganine, or “safingol,” was also tested and results shown for reference. There are 12 wells treated per drug concentration. Twelve wells receive drug vehicle-only to the appropriate final concentration and serve as controls for the plate. Cells are incubated for 96 hours at 37° C. in ambient air with 5% CO2. Fluorescein diacetate is then added to each well in 0.05 mL media to a final concentration of 8 microgram/mL. Cells are incubated for a further 15 minutes at 37° C. and 0.03 mL of 0.5% eosin Y is added to each well. Total fluorescence of viable cells is then measured by digital imaging microscopy. Results were graphed as the ratio of the fluoresecence of drug-treated wells to non-drug treated control wells (i.e., Survival Fraction). All tests were performed at least twice. Representative results are shown.
(§2) The Combination Index (CI) is a term to describe mathematical modeling of the pharmacologic effects on cytotoxicity (cell death) of two drugs in combination based. Cytotoxic “synergy” is defined as a cell death affect which is greater than would be expected from a simple product of the single agent cytotoxicities alone (i.e. an “additive” effect). By Chou-Talalay analysis, a CI<0.9 on a Fraction Affected (“Fa”, i.e. fraction of cells killed) indicates synergy, with smaller numbers indicating greater synergy; a CI of 0.9-1.1 signifies an additive or near-additive effect; and a CI>1.1 means the drug combination is antagonistic.
Fenretinide and L-threo-sphinganines tested in human lung adenocarcinoma (lung cancer) cell line, NCI-H-1792.

[2] = test system: LNCaP prostate adenocarcinoma cell line; test: DIMSCAN cytotoxicity, fenretinide + L-threo-sphinganines 3:1 (Example B16); details: LNCaP.FGC
Protocol: as §1, §2
Fenretinide and L-threo-sphinganines tested in human prostate adenocarcinoma (prostate cancer) cell line, LNCaP.

[3] = test system: COG-LL-317 acute lymphoblastic leukemia cell line; test: DIMSCAN cytotoxicity, fenretinide + L-threo-sphinganines 3:1 (Example B20)
Protocol: as §1, §2
(§3) Fenretinide and L-threo-sphinganines tested in human acute lymphoblastic leukemia (pediatric ALL, a blood cancer) cell lines, COG-LL-317 and MOLT-4.

[4] = test system: MOLT-4 acute lymphoblastic leukemia cell line; test: as above
Protocol: as §1, §2, §3

[5] = test system: drug-resistant CHLA-90 neuroblastoma cancer cell line; test: DIMSCAN cytotoxicity dose-response with fenretinide (Examples A, FIGS. 1, 7, 12); details: at one or more doses, +96 hrs
Protocol: Cytotoxicity Assay: Cytotoxicity in cell lines was determined using a fluorescence-based assay employing digital imaging microscopy (DIMSCAN)(after Fragala, et al, Mol Cancer Ther, 6:886-897, 2007). DIMSCAN quantitates viable cells which selectively accumulate fluorescein diacetate and is capable of measuring cytotoxicity over a 4-5 log dynamic range by quantifying total fluorescence per well (which is proportional to viable, clonogenic cells) after eliminating background fluorescence using digital thresholding and eosin Y quenching. Briefly, cell lines were seeded into 96-well plates in 100 µL of complete culture medium (10-20% serum) per well. Cells were incubated overnight in 2%, 5% or 20% oxygen (room air) prior to addition of drugs in […] volumes of complete medium to various final drug concentrations in replicates of 12 wells per concentration. In assays employing D-threo-PPMP, PPMP was employed at a fixed, minimally-toxic, final concentration of 10 μM in each well. Control wells received ethanol (final concentration=0.12%-0.20%) in complete medium equivalent to the maximum final ethanol concentration of drug-treated wells. Plates were incubated at various oxygen concentrations to simulate physiological hypoxia (i.e., 2% oxygen=typical solid tumor oxygen levels; 5%=bone marrow oxygen levels for leukemias; 20% room air=supraphysiological oxygen for comparison with typical laboratory culture conditions). Plates were assayed at 3-4 days after initiating drug exposure depending on the growth properties of each cell line, to allow for maximum cell death and outgrowth of surviving cells. To measure cytotoxicity, FDA (stock solution of 1 mg/ml in DMSO) was added, in 50 µL of complete medium per well, to a final concentration of 10 µg/ml. The plates were incubated for an additional 15-30 minutes at 37 C and then 30 µL of eosin Y (0.5% in normal saline) was added per well. Total fluorescence of each well was then measured using digital imaging microscopy. […]

[6] = test system: GBM2 glioblastoma brain cancer cell line; test: DIMSCAN cytotoxicity dose-response with fenretinide, with or without D-threo-PPMP (Examples A, FIGS. 3, 9, 14, 18-20); details: +96 hrs
Protocol: (§4) Cytotoxicity Assay: Cytotoxicity in cell lines was determined using a fluorescence-based assay employing digital imaging microscopy (DIMSCAN)(after Fragala, et al, Mol Cancer Ther, 6:886-897, 2007). DIMSCAN quantitates viable cells which selectively accumulate fluorescein diacetate and is capable of measuring cytotoxicity over a 4-5 log dynamic range by quantifying total fluorescence per well (which is proportional to viable, clonogenic cells) after eliminating background fluorescence using digital thresholding and eosin Y quenching. Briefly, cell lines were seeded into 96-well plates in 100 µL of complete culture medium (10-20% serum) per well. Cells were incubated overnight in 2%, 5% or 20% oxygen (room air) prior to addition of drugs in […] volumes of complete medium to various final drug concentrations in replicates of 12 wells per concentration. In assays employing D-threo-PPMP, PPMP was employed at a fixed, minimally-toxic, final concentration of 10 μM in each well. Control wells received ethanol (final concentration=0.12%-0.20%) in complete medium equivalent to the maximum final ethanol concentration of drug-treated wells. Plates were incubated at various oxygen concentrations to simulate physiological hypoxia (i.e., 2% oxygen=typical solid tumor oxygen levels; 5%=bone marrow oxygen levels for leukemias; 20% room air=supraphysiological oxygen for comparison with typical laboratory culture conditions). Plates were assayed at 3-4 days after initiating drug exposure depending on the growth properties of each cell line, to allow for maximum cell death and outgrowth of surviving cells. To measure cytotoxicity, FDA (stock solution of 1 mg/ml in DMSO) was added, in 50 µL of complete medium per well, to a final concentration of 10 µg/ml. The plates were incubated for an additional 15-30 minutes at 37 C and then 30 µL of eosin Y (0.5% in normal saline) was added per well. Total fluorescence of each well was then measured using digital imaging microscopy.
(§5) FIGS. 1 to 26 illustrate the effect (Examples A1 through A26) of the claimed invention and were carried out using the procedures disclosed herein.

[7] = test system: MOLT-4 ALL leukemia cell line; test: DIMSCAN cytotoxicity dose-response with fenretinide, with or without D-threo-PPMP (Examples A, FIGS. 6, 24-26); details: 2% oxygen, D-threo-PPMP fixed 10 uM, at most doses, +96 hrs
Protocol: as §4, §5

[8] = 4-HPR 1.5 μM + L-threo-sphinganine 0.5 μM
[9] = 4-HPR 3 μM + L-threo-sphinganine 1 μM
[10] = 4-HPR 6 μM + L-threo-sphinganine 2 μM
[11] = 4-HPR 9 μM + L-threo-sphinganine 3 μM
[12] = 4-HPR 12 μM + L-threo-sphinganine 4 μM

Which “CI (Combination Index)” value [1, 8] does the source give for `CCCCCCCCCCCCCCCC[C@H](O)[C@@H](N)CO` [C19, (2S,3S)-2-amino-1,3-nonadecanediol] here?
The value was 1.1.

And the “Fa (fraction affected)” value [1, 8]?
The value was 0.138.

And the “CI (Combination Index)” value [1, 9]?
The value was 1.1.

And the “Fa (fraction affected)” value [1, 9]?
The value was 0.736.

What about the “CI (Combination Index)” value [1, 10] of the same molecule?
The value was 1.2.

What about the “Fa (fraction affected)” value [1, 10] of the same molecule?
The value was 0.965.

And the “CI (Combination Index)” value [1, 11]?
Its value is 0.9.

What about the “Fa (fraction affected)” value [1, 11] of the same molecule?
The value was 0.993.

What about the CI [2, 8] of the same molecule?
Its CI is 1.0.

What about the Fa [2, 8] of the same molecule?
Its Fa is 0.697.

What about the CI [2, 9] of the same molecule?
Its CI is 0.5.

What about the Fa [2, 9] of the same molecule?
The Fa was 0.980.

What about the CI [2, 10] of the same molecule?
Its CI is 0.5.

What about the Fa [2, 10] of the same molecule?
The Fa was 0.999.

And the CI [2, 11]?
The CI was 0.2.

And the Fa [2, 11]?
The Fa was 1.000.

What about the CI [3, 9] of the same molecule?
Its CI is 0.8.

What about the Fa [3, 9] of the same molecule?
Its Fa is 0.9980.

And the CI [3, 10]?
The CI was 0.4.

And the Fa [3, 10]?
Its Fa is 0.9999.

And the Fa [3, 11]?
The Fa was 1.0000.

What about the Fa [3, 12] of the same molecule?
The Fa was 1.0000.

What about the CI [4, 9] of the same molecule?
The CI was 1.0.

What about the Fa [4, 9] of the same molecule?
The Fa was 0.797.

And the CI [4, 10]?
Its CI is 0.8.

What about the Fa [4, 10] of the same molecule?
The Fa was 0.996.

And the CI [4, 11]?
The CI was 0.8.

And the Fa [4, 11]?
Its Fa is 0.999.

And the Fa [4, 12]?
The Fa was 1.

What about the “C.I. (Combination Index) with fenretinide” value [5] of the same molecule?
Its value is < 1.

What about the “C.I. of D-threo-PPMP with fenretinide+L-threo-sphinganine (three drug combination)” value ([6]; 2% oxygen, D-threo-PPMP fixed 10 uM, at most doses) of the same molecule?
The value was < 1.

What about the “C.I. (Combination Index) with fenretinide” value ([6]; at one or more doses) of the same molecule?
Its value is < 1.

What about the “C.I. of D-threo-PPMP with fenretinide+L-threo-sphinganine (three drug combination)” value [7] of the same molecule?
The value was < 1.

Reference: patent publication US20110152267A1, “Compositions and Methods for Treating Hyperproliferative Disorders” (Texas Tech University System, priority 2009, published 2011)
